# Source: PubChem BioAssay (NCI)
#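 Here, GI50 denotes the concentration required for 50% inhibition of growth. Definition used: TGI = concentration required for complete inhibition of growth.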
# How the values were obtained:
# Test in all cases: NCI tumour cell line growth inhibition, 384-well format
# 786-0 renal = test system: 786-0 renal
# A498 renal = test system: A498 renal
# A549 NSCLC = test system: A549 NSCLC
# ACHN renal = test system: ACHN renal
# BT-549 breast = test system: BT-549 breast
# CAKI-1 renal = test system: CAKI-1 renal
# CCRF-CEM leukemia = test system: CCRF-CEM leukemia
# COLO 205 colon = test system: COLO 205 colon
# DU-145 prostate = test system: DU-145 prostate
# EKVX NSCLC = test system: EKVX NSCLC
# HCC-2998 colon = test system: HCC-2998 colon
# HCT-116 colon = test system: HCT-116 colon
# HCT-15 colon = test system: HCT-15 colon
# HL-60(TB) leukemia = test system: HL-60(TB) leukemia
# HOP-62 NSCLC = test system: HOP-62 NSCLC
# HOP-92 NSCLC = test system: HOP-92 NSCLC
# HS 578T breast = test system: HS 578T breast
# HT29 colon = test system: HT29 colon
# IGROV1 ovarian = test system: IGROV1 ovarian
# K-562 leukemia = test system: K-562 leukemia
# KM12 colon = test system: KM12 colon
# LOX IMVI melanoma = test system: LOX IMVI melanoma
# M14 melanoma = test system: M14 melanoma
# MALME-3M melanoma = test system: MALME-3M melanoma
# MCF7 breast = test system: MCF7 breast
# MDA-MB-231 breast = test system: MDA-MB-231 breast
# MDA-MB-435 melanoma = test system: MDA-MB-435 melanoma
# MDA-MB-468 breast = test system: MDA-MB-468 breast
# MOLT-4 leukemia = test system: MOLT-4 leukemia
# NCI-H226 lung = test system: NCI-H226 lung
# NCI-H23 lung = test system: NCI-H23 lung
# NCI-H322M lung = test system: NCI-H322M lung
# NCI-H460 NSCLC = test system: NCI-H460 NSCLC
# NCI-H522 lung = test system: NCI-H522 lung
# NCI/ADR-RES ovarian = test system: NCI/ADR-RES ovarian
# OVCAR-3 ovarian = test system: OVCAR-3 ovarian
# OVCAR-4 ovarian = test system: OVCAR-4 ovarian
# OVCAR-5 ovarian = test system: OVCAR-5 ovarian
# OVCAR-8 ovarian = test system: OVCAR-8 ovarian
# PC-3 prostate = test system: PC-3 prostate
# RPMI-8226 leukemia = test system: RPMI-8226 leukemia
# RXF 393 renal = test system: RXF 393 renal
# SF-268 CNS = test system: SF-268 CNS
# SF-295 CNS = test system: SF-295 CNS
# SF-539 CNS = test system: SF-539 CNS
# SK-MEL-28 melanoma = test system: SK-MEL-28 melanoma
# SK-MEL-5 melanoma = test system: SK-MEL-5 melanoma
# SK-OV-3 ovarian = test system: SK-OV-3 ovarian
# SN12C renal = test system: SN12C renal
# SNB-19 CNS = test system: SNB-19 CNS
# SNB-75 CNS = test system: SNB-75 CNS
# SR leukemia = test system: SR leukemia
# SW-620 colon = test system: SW-620 colon
# T-47D breast = test system: T-47D breast
# TK-10 renal = test system: TK-10 renal
# U251 glioblastoma = test system: U251 glioblastoma
# UACC-257 melanoma = test system: UACC-257 melanoma
# UO-31 renal = test system: UO-31 renal
structure (smiles),measurement,setting,value
Cc1ccccc1N=Nc1ccc(NC(=O)c2ccnn2C)c(C)c1,GI50,786-0 renal,68.8 µM
same,TGI,786-0 renal,> 100 µM
same,GI50,A498 renal,90.4 µM
same,TGI,A498 renal,> 100 µM
same,GI50,A549 NSCLC,> 100 µM
same,TGI,A549 NSCLC,> 100 µM
same,GI50,ACHN renal,95.2 µM
same,TGI,ACHN renal,> 100 µM
same,GI50,BT-549 breast,48.6 µM
same,TGI,BT-549 breast,> 100 µM
same,GI50,CAKI-1 renal,> 100 µM
same,TGI,CAKI-1 renal,> 100 µM
same,GI50,CCRF-CEM leukemia,13.8 µM
same,TGI,CCRF-CEM leukemia,> 100 µM
same,GI50,COLO 205 colon,> 100 µM
same,TGI,COLO 205 colon,> 100 µM
same,GI50,DU-145 prostate,> 100 µM
same,TGI,DU-145 prostate,> 100 µM
same,GI50,EKVX NSCLC,23.2 µM
same,TGI,EKVX NSCLC,> 100 µM
same,GI50,HCC-2998 colon,> 100 µM
same,TGI,HCC-2998 colon,> 100 µM
same,GI50,HCT-116 colon,13.1 µM
same,TGI,HCT-116 colon,> 100 µM
same,GI50,HCT-15 colon,54.4 µM
same,TGI,HCT-15 colon,> 100 µM
same,GI50,HL-60(TB) leukemia,34.4 µM
same,TGI,HL-60(TB) leukemia,> 100 µM
same,GI50,HOP-62 NSCLC,37.2 µM
same,TGI,HOP-62 NSCLC,> 100 µM
same,GI50,HOP-92 NSCLC,34.8 µM
same,TGI,HOP-92 NSCLC,> 100 µM
same,GI50,HS 578T breast,27.8 µM
same,TGI,HS 578T breast,> 100 µM
same,GI50,HT29 colon,> 100 µM
same,TGI,HT29 colon,> 100 µM
same,GI50,IGROV1 ovarian,> 100 µM
same,TGI,IGROV1 ovarian,> 100 µM
same,GI50,K-562 leukemia,7.47 µM
same,TGI,K-562 leukemia,> 100 µM
same,GI50,KM12 colon,> 100 µM
same,TGI,KM12 colon,> 100 µM
same,GI50,LOX IMVI melanoma,39.4 µM
same,TGI,LOX IMVI melanoma,> 100 µM
same,GI50,M14 melanoma,> 100 µM
same,TGI,M14 melanoma,> 100 µM
same,GI50,MALME-3M melanoma,> 100 µM
same,TGI,MALME-3M melanoma,> 100 µM
same,GI50,MCF7 breast,36.8 µM
same,TGI,MCF7 breast,> 100 µM
same,GI50,MDA-MB-231 breast,92.8 µM
same,TGI,MDA-MB-231 breast,> 100 µM
same,GI50,MDA-MB-435 melanoma,> 100 µM
same,TGI,MDA-MB-435 melanoma,> 100 µM
same,GI50,MDA-MB-468 breast,3.87 µM
same,TGI,MDA-MB-468 breast,59.4 µM
same,GI50,MOLT-4 leukemia,30.4 µM
same,TGI,MOLT-4 leukemia,> 100 µM
same,GI50,NCI-H226 lung,31.5 µM
same,TGI,NCI-H226 lung,> 100 µM
same,GI50,NCI-H23 lung,13.6 µM
same,TGI,NCI-H23 lung,> 100 µM
same,GI50,NCI-H322M lung,51.9 µM
same,TGI,NCI-H322M lung,> 100 µM
same,GI50,NCI-H460 NSCLC,6.69 µM
same,TGI,NCI-H460 NSCLC,27.3 µM
same,GI50,NCI-H522 lung,15.4 µM
same,TGI,NCI-H522 lung,93.1 µM
same,GI50,NCI/ADR-RES ovarian,6.99 µM
same,TGI,NCI/ADR-RES ovarian,> 100 µM
same,GI50,OVCAR-3 ovarian,> 100 µM
same,TGI,OVCAR-3 ovarian,> 100 µM
same,GI50,OVCAR-4 ovarian,47.7 µM
same,TGI,OVCAR-4 ovarian,> 100 µM
same,GI50,OVCAR-5 ovarian,> 100 µM
same,TGI,OVCAR-5 ovarian,> 100 µM
same,GI50,OVCAR-8 ovarian,46.4 µM
same,TGI,OVCAR-8 ovarian,> 100 µM
same,GI50,PC-3 prostate,> 100 µM
same,TGI,PC-3 prostate,> 100 µM
same,GI50,RPMI-8226 leukemia,5.58 µM
same,TGI,RPMI-8226 leukemia,> 100 µM
same,GI50,RXF 393 renal,5.29 µM
same,TGI,RXF 393 renal,23.7 µM
same,GI50,SF-268 CNS,96.7 µM
same,TGI,SF-268 CNS,> 100 µM
same,GI50,SF-295 CNS,27.1 µM
same,TGI,SF-295 CNS,> 100 µM
same,GI50,SF-539 CNS,> 100 µM
same,TGI,SF-539 CNS,> 100 µM
same,GI50,SK-MEL-28 melanoma,> 100 µM
same,TGI,SK-MEL-28 melanoma,> 100 µM
same,GI50,SK-MEL-5 melanoma,11.2 µM
same,TGI,SK-MEL-5 melanoma,87.1 µM
same,GI50,SK-OV-3 ovarian,> 100 µM
same,TGI,SK-OV-3 ovarian,> 100 µM
same,GI50,SN12C renal,> 100 µM
same,TGI,SN12C renal,> 100 µM
same,GI50,SNB-19 CNS,> 100 µM
same,TGI,SNB-19 CNS,> 100 µM
same,GI50,SNB-75 CNS,25.8 µM
same,TGI,SNB-75 CNS,99.7 µM
same,GI50,SR leukemia,2 µM
same,TGI,SR leukemia,7.31 µM
same,GI50,SW-620 colon,> 100 µM
same,TGI,SW-620 colon,> 100 µM
same,GI50,T-47D breast,8.3 µM
same,TGI,T-47D breast,> 100 µM
same,GI50,TK-10 renal,63.7 µM
same,TGI,TK-10 renal,> 100 µM
same,GI50,U251 glioblastoma,18 µM
same,TGI,U251 glioblastoma,73.1 µM
same,GI50,UACC-257 melanoma,40.2 µM
same,TGI,UACC-257 melanoma,> 100 µM
same,GI50,UO-31 renal,> 100 µM
same,TGI,UO-31 renal,> 100 µM
